Laboratory results: paper PMC4871627 (Journal of medicinal chemistry, 2016)

How the values were obtained:
HIV RT polymerase = HIV RT polymerase (Human immunodeficiency virus type 1 group M subtype B, UniProt P04585); type: biochemical, HIV-1; details: RNase H with HTS-1 as substrate
HIV integrase = HIV integrase (Human immunodeficiency virus type 1 group M subtype B, UniProt P04585); assay: HIV IN strand transfer; type: biochemical, HIV-1; details: INST IC50, tested 0.13-100 µM

SMILES	SI (IC50 RT pol / IC50 RNase H) (HIV RT polymerase)	IC50 (HIV integrase) [nM]
Cc1ccc(-c2ccc(Nc3cc(=O)n(O)c(=O)[nH]3)cc2)cc1 [11b, 3-Hydroxy-6-((4'-methyl-[1,1'-biphenyl]-4-yl)amino)pyrimidine-2,4(1H,3H)-dione]	5.7 (14)	
COc1ccc(-c2cccc(Nc3cc(=O)n(O)c(=O)[nH]3)c2)cc1 [11j, 3-Hydroxy-6-((4'-methoxy-[1,1'-biphenyl]-3-yl)amino)pyrimidine-2,4(1H,3H)-dione]	6.3 (32)	> 100000
COc1ccc(-c2cccc(Nc3cc(=O)n(O)c(=O)[nH]3)c2)c(OC)c1 [11l, 6-((2',4'-Dimethoxy-[1,1'-biphenyl]-3-yl)amino)-3-hydroxypyrimidine-2,4(1H,3H)-dione]		1200 to 1300
COc1cccc(OC)c1-c1cccc(Nc2cc(=O)n(O)c(=O)[nH]2)c1 [11m, 6-((2',6'-Dimethoxy-[1,1'-biphenyl]-3-yl)amino)-3-hydroxypyrimidine-2,4(1H,3H)-dione]		1200 to 1300
O=c1cc(Nc2cccc(-c3ccc(F)cc3)c2)[nH]c(=O)n1O [11o, 6-((4'-Fluoro-[1,1'-biphenyl]-3-yl)amino)-3-hydroxypyrimidine-2,4(1H,3H)-dione]	6.6 (33)	> 100000
